Data taken from patent US8754129B2, “Crystalline vorinostat form VI” (Generics [UK] Limited, priority 2008, dated 2014).

Assay: Polymorphic stability on storage at 40° C./75% relative humidity
Format: physicochemical
Details: kept at a temperature of 40° C.±2° C. and a relative humidity of 75%±5% for 6 months
Procedure: All XRPD analyses were carried out on a Bruker D8 Advance instrument, equipped with a copper radiation source with a wavelength of 1.54 Å.
All DSC analyses were carried out on a Perkin Elmer instrument, over a temperature range of 25° C. to 250° C., at a heating rate of 10° C./min, using a closed aluminium pan with a pinhole as crucible.

## O=C(CCCCCCC(=O)Nc1ccccc1)NO [crystalline form VI, N-hydroxy-N′-phenyl-octanediamide]
  polymorphic stability (conversion over time to other polymorphs): very stable polymorphically with no conversion over time to other polymorphs
